What was measured:
HPV18 E7 = experiment: Competitive ELISA with HPV18 E7 anti-serum; type: binding; conditions: peptides 0.08 µM to 800 µM vs HPV18 E7 anti-serum; mean ± SE, three independent experiments
CaSki cells [1] = experiment: MTT cell viability assay, CaSki; type: cell-based; conditions: HPV16-positive, medium replaced daily, A540, mean ± SE, at least two independent runs in sextuplicate
Description: (§1) Cell viability was determined with an MTT assay. Briefly, the cells were seeded into 96-well plates at a density of 4–5×10^3 cells/well. The cells were allowed to recover for 24 h before the medium was replaced with DMEM supplemented with peptides at different concentrations. The solvent of the peptides was set as the control. The peptide-supplemented medium was replaced daily and the respective concentrations were maintained. The cells were subjected to an MTT cell proliferation assay at different time points. The plates were incubated at 37°C for 3 h with the addition of 20 µl/well MTT (5 mg/ml). Untransformed MTT in the solution was removed by aspiration. The formazan product was dissolved in DMSO, and plates were shaken vigorously at room temperature for 10–15 min to ensure complete solubilization. The optical density of the formazan solutions was measured by microplate reader at 540 nm.

[2] = test system: CNE nasopharyngeal carcinoma cells; experiment: MTT cell viability assay, CNE; type: cell-based; conditions: HPV-negative, data not shown
From the text: (§2) HPV16-positive SiHa and CaSki cervical carcinoma cells were supplied by China Center for Type Culture Collection (CCTCC). The following cell lines used in this project were from our laboratory: HPV18-positive HeLa cervical carcinoma cells, CNE nasopharyngeal carcinoma cells, HaCat human keratinocyte cells, COS7 (African green monkey SV40-transformed kidney fibroblast cell line), 293T (human kidney epithelial cells), and NIH/3T3 mouse embryonic fibroblast cells. All cells were maintained in a humidified atmosphere of 5% CO2, Dulbecco's modified Eagle's medium (DMEM, pH 7.2), supplemented with 10% fetal calf serum (FCS).
as §1, with “The formazan product was dissolved in DMSO, and plates were shaken vigorously at room temperature for 10–15 min to ensure complete solubilization.” left out

COS7 = experiment: MTT cell viability assay, Cos7; type: cell-based, African green monkey; conditions: Cos7, HPV-negative; data not shown
From the text: as §2
as §1, with “The formazan product was dissolved in DMSO, and plates were shaken vigorously at room temperature for 10–15 min to ensure complete solubilization.” left out

SiHa cells [3] = experiment: qRT-PCR, SiHa; type: cell-based; conditions: 80 µM
Description: (§3) Total RNA was extracted from the cultured cells using TRIzol reagent (Invitrogen, Carlsbad, CA,USA) according to the manufacturer's instructions. qRT-PCR was used to confirm the expression levels of mRNAs. Reverse transcription and qPCR were performed according to the protocol of Reverse Transcriptase System™ and SYBR® premix Ex Taq™ (Perfect Real Time) (TaKaRa, Dalian, P.R. China) on the ABI 7300 Real Time PCR System (Applied Biosystems, Foster City, CA, USA) supplied with analytical software. β-actin mRNA levels were used for normalization. Each sample was determined in triplicate. The results represent means ± SE from three experiment runs.

SiHa cells [4] = experiment: Western blot, SiHa; type: cell-based; conditions: 80 µM
Description: (§4) Western blotting was carried out as described previously, [50]. […] After another 48 h of treatment, the cells were lysed in lysis buffer (Beyotime Institute of Biotechnology, Jiangshu, China) containing PMSF (Sigma Chemical Co., St. Louis, MI, USA) for 30 min at 4°C. The lysate was then centrifuged for 20 min at 13,000 rpm and 4°C. The proteins were then separated through SDS-PAGE and transferred onto the PVDF membrane (Immobion®-P Transfer Membrane, Millipore Corp., Billerica, MA, USA). Membranes were blocked in a Tris-buffered saline with 0.1% Tween-20 (TBS-T) solution with 5% nonfat dry milk and incubated overnight with primary antibodies at 4°C. The immunoreactive signals were detected by HRP-conjugated secondary antibodies (KPL, Gaithersburg, MD, USA) followed by SuperSignal® West Pico Chemiluminescent Substrate (Thermo Scientific, Milford, MA, USA.). Anti-β-actin antibodies were used to control protein loading. For the in vivo studies, tumors were harvested, and the cell lysates were prepared and transferred to a clean Eppendorf tube and centrifuged for 30 min at 14,000 rpm. The supernate was probed by western blotting, as described above.

CaSki cells [5] = experiment: Western blot, CaSki; type: cell-based; conditions: 80 µM, 48 h
Description: as §4

cyclins A, D1, and E1 = experiment: qRT-PCR of tumor tissues; type: in vivo, mouse (Balb/C-nu/nu)
Description: as §3

SACPKGLDWCGG (C&C bridged by disulfide bonds) (disulfide) [Pep-7]
binding to HPV18 E7 (HPV18 E7): did not bind to HPV18 E7 | cell proliferation (MTT) (CaSki cells [1]): repressed significantly by Pep-7 in a dose- and time-dependent manner | cell proliferation (MTT) [2]: negligible effect | cell proliferation (MTT) (COS7): negligible effect | cyclins A, D1 and E1 RNA expression (SiHa cells [3]): significantly reduced | pRb and HPV16E7 RNA levels (SiHa cells [3]): not affected | p107 and p130 protein levels (SiHa cells [4]; SiHa and CaSki (Fig. 4D)): did not exhibit an effect | HPV16E7 protein level (SiHa cells [4]; SiHa, 48 h): reduced | cyclins A, D1 and E1 protein expression (SiHa cells [4]; SiHa, 48 h): significantly reduced | pRb protein level (SiHa cells [4]; SiHa, 48 h): increased | HPV16E7 protein level (CaSki cells [5]): reduced | cyclins A, D1 and E1 protein expression (CaSki cells [5]): significantly reduced | pRb protein level (CaSki cells [5]): increased | cyclins A, D1, and E1 RNA levels in tumor tissue (cyclins A, D1, and E1): reduced
